Laboratory results taken from PubChem BioAssay (NCI).
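Following 48 hours of exposure in 96-well plates, responses at five concentrations were used to interpolate endpoints linearly. TGI marks complete inhibition of growth.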

What was measured:
Experiment in all cases: DTP human tumour cell line panel, 48 h
[1] = system: SK-OV-3 ovarian
[2] = system: CCRF-CEM leukemia
[3] = system: ACHN renal
[4] = system: NCI-H460 lung
[5] = system: TK-10 renal
[6] = system: 786-0 renal
[7] = system: M14 melanoma
[8] = system: UACC-257 melanoma
[9] = system: T-47D breast
[10] = system: NCI-H23 lung
[11] = system: HCC-2998 colon
[12] = system: DU-145 prostate
[13] = system: HS 578T breast
[14] = system: U251 CNS
[15] = system: IGROV1 ovarian
[16] = system: UO-31 renal
[17] = system: UACC-62 melanoma
[18] = system: OVCAR-5 ovarian
[19] = system: LOX IMVI melanoma
[20] = system: KM12 colon
[21] = system: SF-539 CNS
[22] = system: HCT-15 colon
[23] = system: MOLT-4 leukemia
[24] = system: SN12C renal
[25] = system: SNB-19 CNS
[26] = system: HOP-92 NSCLC
[27] = system: SK-MEL-2 melanoma
[28] = system: SF-295 CNS
[29] = system: SK-MEL-28 melanoma
[30] = system: RPMI-8226 leukemia
[31] = system: OVCAR-4 ovarian
[32] = system: NCI-H522 lung
[33] = system: A498 renal
[34] = system: MALME-3M melanoma
[35] = system: HCT-116 colon
[36] = system: SF-268 CNS
[37] = system: NCI/ADR-RES ovarian
[38] = system: HT29 colon
[39] = system: MCF7 breast
[40] = system: CAKI-1 renal
[41] = system: EKVX NSCLC
[42] = system: A549 NSCLC
[43] = system: BT-549 breast
[44] = system: COLO 205 colon
[45] = system: RXF 393 renal
[46] = system: OVCAR-3 ovarian
[47] = system: HOP-62 NSCLC
[48] = system: OVCAR-8 ovarian
[49] = system: PC-3 prostate
[50] = system: SNB-75 CNS
[51] = system: MDA-MB-231 breast
[52] = system: MDA-MB-435
[53] = system: MDA-N
[54] = system: SW-620 colon
[55] = system: K-562 leukemia
[56] = system: SR leukemia
[57] = system: NCI-H226 lung
[58] = system: HL-60(TB) leukemia
[59] = system: SK-MEL-5 melanoma

## CN(C)c1ccc(/C=C2\N=C(NNc3ccccc3)NC2=O)cc1
[1]
  TGI: > 100 µM
[2]
  TGI: > 100 µM
[3]
  TGI: 61.9 µM
[4]
  TGI: 52.7 µM
[5]
  TGI: 67.2 µM
[6]
  TGI: 50.2 µM
[7]
  TGI: > 100 µM
[8]
  TGI: 38.5 µM
[9]
  TGI: 38.8 µM
[10]
  TGI: 65.3 µM
[11]
  TGI: 30.9 µM
[12]
  TGI: > 100 µM
[13]
  TGI: > 100 µM
[14]
  TGI: 27.3 µM
[15]
  TGI: 80.6 µM
[16]
  TGI: > 100 µM
[17]
  TGI: > 100 µM
[18]
  TGI: > 100 µM
[19]
  TGI: 92.4 µM
[20]
  TGI: 32.6 µM
[21]
  TGI: 43.3 µM
[22]
  TGI: > 100 µM
[23]
  TGI: > 100 µM
[24]
  TGI: 44.6 µM
[25]
  TGI: > 100 µM
[26]
  TGI: 51.3 µM
[27]
  TGI: 44 µM
[28]
  TGI: 83.4 µM
[29]
  TGI: 71.4 µM
[30]
  TGI: 40.1 µM
[31]
  TGI: > 100 µM
[32]
  TGI: 57.1 µM
[33]
  TGI: 42.1 µM
[34]
  TGI: > 100 µM
[35]
  TGI: > 100 µM
[36]
  TGI: > 100 µM
[37]
  TGI: > 100 µM
[38]
  TGI: > 100 µM
[39]
  TGI: 41.9 µM
[40]
  TGI: > 100 µM
[41]
  TGI: 68.1 µM
[42]
  TGI: > 100 µM
[43]
  TGI: 83.2 µM
[44]
  TGI: 29 µM
[45]
  TGI: 78.9 µM
[46]
  TGI: 35 µM
[47]
  TGI: > 100 µM
[48]
  TGI: > 100 µM
[49]
  TGI: 29.3 µM
[50]
  TGI: 78.9 µM
[51]
  TGI: 40.1 µM
[52]
  TGI: 59.1 µM
[53]
  TGI: > 100 µM
[54]
  TGI: 82.3 µM

## Clc1ccc(C2=NN=C3C(c4ccccc4)=Nc4ccccc4N3C2)cc1
[55]
  TGI: > 100 µM
[1]
  TGI: > 100 µM
[2]
  TGI: 15.2 µM
[3]
  TGI: > 100 µM
[5]
  TGI: > 50.2 µM
[6]
  TGI: > 100 µM
[7]
  TGI: > 25.8 µM
[8]
  TGI: > 100 µM
[56]
  TGI: > 21.9 µM
[10]
  TGI: > 100 µM
[11]
  TGI: > 100 µM
[12]
  TGI: > 41.9 µM
[13]
  TGI: 31.6 µM
[14]
  TGI: > 100 µM
[57]
  TGI: > 100 µM
[15]
  TGI: > 100 µM
[16]
  TGI: > 80 µM
[17]
  TGI: > 100 µM
[18]
  TGI: > 30.6 µM
[19]
  TGI: > 100 µM
[20]
  TGI: > 100 µM
[21]
  TGI: > 100 µM
[22]
  TGI: > 100 µM
[23]
  TGI: > 23.2 µM
[24]
  TGI: > 100 µM
[25]
  TGI: > 100 µM
[26]
  TGI: > 93.2 µM
[27]
  TGI: > 100 µM
[28]
  TGI: > 100 µM
[29]
  TGI: > 100 µM
[30]
  TGI: > 29.4 µM
[31]
  TGI: > 43.9 µM
[32]
  TGI: 8.17 µM
[33]
  TGI: > 100 µM
[34]
  TGI: > 82 µM
[35]
  TGI: > 100 µM
[36]
  TGI: > 93.9 µM
[37]
  TGI: > 100 µM
[58]
  TGI: 17.6 µM
[38]
  TGI: > 25.8 µM
[39]
  TGI: > 100 µM
[40]
  TGI: > 100 µM
[41]
  TGI: > 27.1 µM
[42]
  TGI: > 100 µM
[43]
  TGI: > 100 µM
[44]
  TGI: > 100 µM
[45]
  TGI: > 46.2 µM
[46]
  TGI: > 20.1 µM
[47]
  TGI: > 100 µM
[48]
  TGI: > 100 µM
[49]
  TGI: > 100 µM
[51]
  TGI: > 100 µM
[52]
  TGI: > 100 µM
[59]
  TGI: 16.5 µM
[53]
  TGI: > 100 µM
[54]
  TGI: > 100 µM

## [O-][N+](=Nc1ccccc1CO)c1ccccc1CO
[55]
  TGI: > 100 µM
[1]
  TGI: > 100 µM
[2]
  TGI: > 100 µM
[4]
  TGI: > 100 µM
[5]
  TGI: > 100 µM
[6]
  TGI: > 100 µM
[7]
  TGI: > 100 µM
[8]
  TGI: > 100 µM
[9]
  TGI: > 100 µM
[56]
  TGI: > 100 µM
[10]
  TGI: > 100 µM
[11]
  TGI: > 100 µM
[12]
  TGI: > 100 µM
[13]
  TGI: > 100 µM
[14]
  TGI: > 100 µM
[57]
  TGI: > 100 µM
[16]
  TGI: > 100 µM
[17]
  TGI: > 100 µM
[18]
  TGI: > 100 µM
[19]
  TGI: > 100 µM
[20]
  TGI: > 100 µM
[21]
  TGI: > 100 µM
[22]
  TGI: > 100 µM
[23]
  TGI: > 100 µM
[24]
  TGI: > 100 µM
[25]
  TGI: > 100 µM
[27]
  TGI: > 100 µM
[29]
  TGI: > 100 µM
[30]
  TGI: > 100 µM
[31]
  TGI: > 100 µM
[32]
  TGI: > 100 µM
[33]
  TGI: > 100 µM
[34]
  TGI: > 100 µM
[35]
  TGI: > 100 µM
[36]
  TGI: > 100 µM
[37]
  TGI: > 100 µM
[58]
  TGI: > 100 µM
[38]
  TGI: > 100 µM
[39]
  TGI: > 100 µM
[40]
  TGI: > 100 µM
[41]
  TGI: > 100 µM
[42]
  TGI: > 100 µM
[43]
  TGI: > 100 µM
[44]
  TGI: > 100 µM
[45]
  TGI: > 100 µM
[46]
  TGI: > 100 µM
[48]
  TGI: > 100 µM
[49]
  TGI: > 100 µM
[50]
  TGI: > 100 µM
[51]
  TGI: > 100 µM
[52]
  TGI: > 100 µM
[59]
  TGI: > 100 µM
[53]
  TGI: > 100 µM
[54]
  TGI: > 100 µM

## CN1CN(c2ccccc2)C2(CCN(CC(C)(c3ccc(F)cc3)C3OCCCO3)CC2)C1=O (stereo unspecified)
[55]
  TGI: 38.6 µM
[1]
  TGI: 67.1 µM
[2]
  TGI: 45.9 µM
[3]
  TGI: 49.2 µM
[5]
  TGI: 31.9 µM
[6]
  TGI: 43.1 µM
[7]
  TGI: 34.5 µM
[8]
  TGI: 31.5 µM
[9]
  TGI: 56.2 µM
[56]
  TGI: 30.4 µM
[10]
  TGI: 32.9 µM
[12]
  TGI: > 100 µM
[14]
  TGI: 26.6 µM
[57]
  TGI: 42.7 µM
[15]
  TGI: 38.9 µM
[16]
  TGI: 11 µM
[17]
  TGI: 34.6 µM
[18]
  TGI: 25.7 µM
[19]
  TGI: 31.8 µM
[20]
  TGI: 31.1 µM
[21]
  TGI: 26.5 µM
[22]
  TGI: 33.9 µM
[23]
  TGI: 33.2 µM
[24]
  TGI: 34.6 µM
[25]
  TGI: 42 µM
[28]
  TGI: 33.4 µM
[29]
  TGI: 34.6 µM
[30]
  TGI: 27.3 µM
[32]
  TGI: 33.6 µM
[34]
  TGI: 30 µM
[35]
  TGI: 28.7 µM
[36]
  TGI: 44.9 µM
[37]
  TGI: 26.9 µM
[58]
  TGI: 33.7 µM
[38]
  TGI: 27.3 µM
[39]
  TGI: 30.2 µM
[40]
  TGI: 65.3 µM
[41]
  TGI: 54.8 µM
[42]
  TGI: 61.9 µM
[43]
  TGI: 19.2 µM
[44]
  TGI: 44.3 µM
[45]
  TGI: 39.5 µM
[46]
  TGI: 24.5 µM
[47]
  TGI: 30.7 µM
[48]
  TGI: 38.5 µM
[49]
  TGI: 34.7 µM
[50]
  TGI: 46.6 µM
[51]
  TGI: 60.8 µM
[52]
  TGI: 24.5 µM
[59]
  TGI: 30.1 µM
[53]
  TGI: 31.6 µM
[54]
  TGI: 43.7 µM
